# Laboratory results reported in PubChem BioAssay AID328 (DTP/NCI, 2004).
# Values joined by “and” are separate entries in the source; they are usually repeats but may differ in a detail not shown here. Identical values can stand only once. Toxic doses and inconclusive results are not listed.
# Tested on: BDF1 mice, P388 leukemia ip, median survival T/C
# Assay: NCI In Vivo Anticancer Drug Screen. Data for tumor model P388 Leukemia (intraperitoneal) in B6D2F1 (BDF1) mice
# Conditions: endpoint: median survival time, higher = longer survival
# How it was run: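 Transplantable tumour in mice; compound vs vehicle dosing; survival scored; ratio of treated to control reported.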
# [1] = dose: 50.0 mg/kg/injection, schedule: Q04DX003 (ip), vehicle: saline with Tween-80
# [2] = dose: 100.0 mg/kg/injection, schedule: Q04DX003 (ip), vehicle: saline with Tween-80
# [3] = dose: 100.0 mg/kg/injection, schedule: Q01DX009 (ip), vehicle: saline with Tween-80
# [4] = dose: 200.0 mg/kg/injection, schedule: Q01DX009 (ip), vehicle: saline with Tween-80
# [5] = dose: 200.0 mg/kg/injection, schedule: Q04DX003 (ip), vehicle: saline with Tween-80
# [6] = dose: 400.0 mg/kg/injection, schedule: Q04DX003 (ip), vehicle: saline with Tween-80
# [7] = dose: 50.0 mg/kg/injection, schedule: Q01DX009 (ip), vehicle: saline with Tween-80
# [8] = dose: 12.5 mg/kg/injection, schedule: Q04DX003 (ip), vehicle: saline
# [9] = dose: 25.0 mg/kg/injection, schedule: Q04DX003 (ip), vehicle: saline
# [10] = dose: 50.0 mg/kg/injection, schedule: Q04DX003 (ip), vehicle: saline
# [11] = dose: 50.0 mg/kg/injection, schedule: Q01DX009 (ip), vehicle: saline
# [12] = dose: 100.0 mg/kg/injection, schedule: Q04DX003 (ip), vehicle: saline
# [13] = dose: 200.0 mg/kg/injection, schedule: Q04DX003 (ip), vehicle: saline
# [14] = dose: 12.5 mg/kg/injection, schedule: Q01DX009 (ip), vehicle: Klucel (hydroxypropylcellulose) (HPC)
# [15] = dose: 25.0 mg/kg/injection, schedule: Q01DX009 (ip), vehicle: Klucel (hydroxypropylcellulose) (HPC)
# [16] = dose: 25.0 mg/kg/injection, schedule: Q04DX003 (ip), vehicle: saline with Tween-80
smiles,measurement,setting,value
NC(=O)CCCNC(=O)CCC[c-]1[c-][c-][c-][c-]1.[Fe].[c-]1[c-][c-][cH-][c-]1,T/C,"dose: 6.25 mg/kg/injection, schedule: Q01DX009 (ip), vehicle: other",100 % of control
same,T/C,"dose: 12.5 mg/kg/injection, schedule: Q01DX009 (ip), vehicle: other",98 % of control
same,T/C,"dose: 25.0 mg/kg/injection, schedule: Q01DX009 (ip), vehicle: other",100 % of control
same,T/C,"dose: 50.0 mg/kg/injection, schedule: Q01DX009 (ip), vehicle: other",114 % of control
same,T/C,"dose: 100.0 mg/kg/injection, schedule: Q01DX009 (ip), vehicle: other",121 % of control
c1ccc2c(c1)[nH]c1nc3ccncc3nc12,T/C,[1],90 % of control
same,T/C,[2],95 % of control
CC1CCC2=C(C1)S(=O)(=O)CC2 (stereo not given),T/C,"dose: 6.25 mg/kg/injection, schedule: Q04DX002 (ip), vehicle: saline",103 % of control
same,T/C,"dose: 12.5 mg/kg/injection, schedule: Q04DX002 (ip), vehicle: saline",94 % of control
same,T/C,"dose: 25.0 mg/kg/injection, schedule: Q04DX002 (ip), vehicle: saline",103 % of control
CC=C(/C(=C/C)c1ccc(O)cc1)c1ccc(O)cc1,T/C,"dose: 66.0 mg/kg/injection, schedule: Q01DX009 (ip), vehicle: saline with Tween-80",100 % of control
same,T/C,[3],109 % of control
same,T/C,"dose: 150.0 mg/kg/injection, schedule: Q01DX009 (ip), vehicle: saline with Tween-80",118 % of control
O=C1NC(=O)C(c2ccccc2)(c2ccc(Cl)cc2Cl)N1 (stereo not given),T/C,[3],95 % of control
same,T/C,[2],100 % of control
same,T/C,[4],91 % of control
same,T/C,[5],90 % of control
same,T/C,[6],100 % of control
O=N/N=c1/sc2ccccc2n1-c1ccccc1,T/C,"dose: 25.0 mg/kg/injection, schedule: Q01DX001 (ip), vehicle: saline sonified",100 % of control
same,T/C,"dose: 50.0 mg/kg/injection, schedule: Q01DX001 (ip), vehicle: saline sonified",104 % of control
same,T/C,"dose: 100.0 mg/kg/injection, schedule: Q01DX001 (ip), vehicle: saline sonified",100 % of control
CCc1ccccc1NC(=O)N1CCOCC1,T/C,[7],94 % of control
same,T/C,[3],102 % of control
same,T/C,[4],109 % of control
O=N[O-].[Co].[NH2-].[NH2-].[NH2-].[NH2-].[NH2-],T/C,[8],95 % of control
same,T/C,[9],100 % of control
same,T/C,[10],100 % of control
O=C1C=C(NC2CCCCC2)CCC1,T/C,[11],96 % of control
same,T/C,"dose: 100.0 mg/kg/injection, schedule: Q01DX009 (ip), vehicle: saline",99 % of control
same,T/C,"dose: 200.0 mg/kg/injection, schedule: Q01DX009 (ip), vehicle: saline",99 % of control
C=C(C)CC#N,T/C,[10],100 % of control
same,T/C,[12],109 % of control
same,T/C,[13],109 % of control
COc1cc2c(c(OC)c1OC)-c1ccc(OC)c(=O)cc1[C@@H](NC(=O)C(F)(F)F)CC2,T/C,"dose: 0.09 mg/kg/injection, schedule: Q01DX009 (ip), vehicle: Klucel (hydroxypropylcellulose) (HPC)",155 % of control
same,T/C,"dose: 0.18 mg/kg/injection, schedule: Q01DX009 (ip), vehicle: Klucel (hydroxypropylcellulose) (HPC)",171 % of control
same,T/C,"dose: 0.39 mg/kg/injection, schedule: Q01DX009 (ip), vehicle: Klucel (hydroxypropylcellulose) (HPC)",245 % of control
Clc1ccc2nc(CI)c(CI)nc2c1,T/C,"dose: 3.12 mg/kg/injection, schedule: Q01DX009 (ip), vehicle: Klucel (hydroxypropylcellulose) (HPC)",100 % of control
same,T/C,"dose: 6.25 mg/kg/injection, schedule: Q01DX009 (ip), vehicle: Klucel (hydroxypropylcellulose) (HPC)",100 % of control and 122 % of control
same,T/C,"dose: 6.25 mg/kg/injection, schedule: Q04DX003 (ip), vehicle: saline",108 % of control
same,T/C,[14],88 % of control and 100 % of control
same,T/C,[8],108 % of control
same,T/C,"dose: 22.0 mg/kg/injection, schedule: Q01DX009 (ip), vehicle: saline with Tween-80",122 % of control
same,T/C,[15],95 % of control
same,T/C,[9],104 % of control
same,T/C,"dose: 33.0 mg/kg/injection, schedule: Q01DX009 (ip), vehicle: saline with Tween-80",113 % of control
O=C(O)/C(Br)=C/c1ccccc1,T/C,[1],100 % of control
same,T/C,[2],109 % of control
same,T/C,[5],95 % of control
CCOC(=O)C1=C(C)NC(C)=C(C(=O)OCC)C1c1ccc([N+](=O)[O-])s1,T/C,[7],106 % of control
same,T/C,[3],99 % of control
O=[N+]([O-])c1ccc(/C=C/C=C\c2cccc(S(=O)(=O)F)c2)c(Cl)c1,T/C,"dose: 100.0 mg/kg/injection, schedule: Q01DX001 (ip), vehicle: Klucel (hydroxypropylcellulose) (HPC)",90 % of control and 104 % of control
same,T/C,"dose: 100.0 mg/kg/injection, schedule: Q01DX009 (ip), vehicle: acetone",112 % of control
same,T/C,"dose: 200.0 mg/kg/injection, schedule: Q01DX001 (ip), vehicle: Klucel (hydroxypropylcellulose) (HPC)",93 % of control and 100 % of control
same,T/C,"dose: 200.0 mg/kg/injection, schedule: Q01DX009 (ip), vehicle: acetone",108 % of control
same,T/C,"dose: 400.0 mg/kg/injection, schedule: Q01DX001 (ip), vehicle: Klucel (hydroxypropylcellulose) (HPC)",100 % of control and 106 % of control
same,T/C,"dose: 400.0 mg/kg/injection, schedule: Q01DX009 (ip), vehicle: acetone",95 % of control
CC1Cc2c(Cl)cc(C(=O)NC(Cc3ccccc3)C(=O)O)c(O)c2C(=O)O1 (stereo not given),T/C,"dose: 0.25 mg/kg/injection, schedule: Q01DX009 (ip), vehicle: saline",98 % of control
same,T/C,"dose: 0.5 mg/kg/injection, schedule: Q01DX009 (ip), vehicle: saline",116 % of control
same,T/C,"dose: 1.0 mg/kg/injection, schedule: Q01DX009 (ip), vehicle: saline",115 % of control
CCSC1(SCC)C(=O)OC2=C(CCCCC2)C1N(C)C (stereo not given),T/C,[7],96 % of control
same,T/C,[3],95 % of control
same,T/C,[4],103 % of control
CCCCN(CCCC)C(=O)C1C=C2c3cccc4[nH]cc(c34)CC2N(C)C1 (stereo not given),T/C,"dose: 50.0 mg/kg/injection, schedule: Q01DX009 (ip), vehicle: water",105 % of control
same,T/C,"dose: 100.0 mg/kg/injection, schedule: Q01DX009 (ip), vehicle: water",94 % of control
same,T/C,"dose: 100.0 mg/kg/injection, schedule: Q04DX003 (ip), vehicle: water",105 % of control
same,T/C,"dose: 200.0 mg/kg/injection, schedule: Q01DX009 (ip), vehicle: water",114 % of control
same,T/C,"dose: 200.0 mg/kg/injection, schedule: Q04DX003 (ip), vehicle: water",94 % of control
same,T/C,"dose: 400.0 mg/kg/injection, schedule: Q01DX009 (ip), vehicle: water",109 % of control
same,T/C,"dose: 400.0 mg/kg/injection, schedule: Q04DX003 (ip), vehicle: water",97 % of control
COc1ccc2c(C)[n+]3ccc4cc(OC)c(OC)cc4c3cc2c1 (tested in a mixture with another compound),T/C,[9],154 % of control
same,T/C,"dose: 33.0 mg/kg/injection, schedule: Q01DX009 (ip), vehicle: saline",186 % of control
same,T/C,[11],181 % of control
same,T/C,[10],154 % of control and 181 % of control
same,T/C,"dose: 75.0 mg/kg/injection, schedule: Q01DX009 (ip), vehicle: saline",118 % of control
same,T/C,[13],150 % of control
Oc1c(I)cc(Cl)c2cccnc12,T/C,[14],115 % of control
same,T/C,[15],115 % of control
same,T/C,"dose: 50.0 mg/kg/injection, schedule: Q01DX009 (ip), vehicle: Klucel (hydroxypropylcellulose) (HPC)",120 % of control
CCOC1NC(C)(C)CO1 (stereo not given),T/C,[12],100 % of control
same,T/C,[13],91 % of control
same,T/C,"dose: 400.0 mg/kg/injection, schedule: Q04DX003 (ip), vehicle: saline",95 % of control
C(=C\c1ccc2ccc(/C=C/c3ccccc3)cc2c1)/c1ccccc1,T/C,[2],112 % of control
same,T/C,[5],90 % of control
same,T/C,[6],105 % of control
CCOC(=O)c1cc2ccccc2oc1=O,T/C,"dose: 25.0 mg/kg/injection, schedule: Q01DX009 (ip), vehicle: saline with Tween-80",95 % of control
same,T/C,[16],115 % of control
same,T/C,[7],100 % of control
same,T/C,[1],105 % of control
same,T/C,[2],105 % of control
Cc1cccc(C)c1NC(=O)N(CCCl)N=O,T/C,"dose: 0.88 mg/kg/injection, schedule: Q01DX009 (ip), vehicle: saline with Tween-80",159 % of control
same,T/C,"dose: 1.32 mg/kg/injection, schedule: Q01DX009 (ip), vehicle: saline with Tween-80",159 % of control
same,T/C,"dose: 2.0 mg/kg/injection, schedule: Q01DX009 (ip), vehicle: saline with Tween-80",204 % of control
same,T/C,"dose: 3.0 mg/kg/injection, schedule: Q01DX009 (ip), vehicle: saline with Tween-80",200 % of control
same,T/C,"dose: 12.5 mg/kg/injection, schedule: Q04DX003 (ip), vehicle: saline with Tween-80",86 % of control
same,T/C,[16],109 % of control
